Consider seven molecules from patent US12358863B2, “Nitrogen-containing derivative of substituted phenol hydroxy acid ester, and preparation and use thereof” (priority 2019, dated 2025).

Where two headings read alike, the source gives them in different places.

In data set [1] the test system is Kunming mice. It counts as in vivo, mouse. The protocol:
For each drug, 10 male Kunming mice weighing 20-35 g were included, and the dose of each drug was 2×ED50 in mice. After the compound of the present invention and fospropofol were respectively dissolved in saline, the resultant solutions were injected via the mouse tail vein. For propofol, a glucose dilution (5 mg/mL) of a commercially available emulsion of diprivan was selected and injected via the mouse tail vein; while, for another substituted phenol molecule (CAS:1637741-58-2), its 30% fat emulsion was prepared as a medicated emulsion. The concentration of the injectable solution of the compound according to the present invention was 10-15 mg/mL, and the concentration of the injectable solution of fospropofol was 55 mg/mL, while the concentration of the injectable solution of another substituted phenol molecule (CAS:1637741-58-2) was 1 mg/mL. After injection of tested drug, the occurrence time T1 of righting reflex after its disappearance, the duration T2 for the disappearance of righting reflex (i.e. anesthesia time) and the time T3 required for the animal to recover completely after waking up were recorded. Complete recovery refers to the recovery of autonomous activities of animals to the level before administration. In the experiment, animals were not given respiratory support such as oxygen inhalation or intubation.

Data set [2] relates to Kunming mice. The data set is described as follows: Determination of therapeutic index (ED50 and LD50, up-and-down method). It counts as in vivo, mouse. The settings on record: half male and half female. The protocol: Determination of therapeutic index (TI) of prodrug molecules: by referring the method in literature (Dixon, W. Staircase bioassay: the up-and-down method. Neurosci. Biobehav. Rev. 1991, 15, 47-50), the half-effective dose (ED50) and half-lethal dose (LD50) of the molecule to be tested were determined in Kunming mice (weighing 25-30 g, half male and half female). The therapeutic index for each molecule was calculated according to the equation: TI=LD50/ED50.

A short description of data set [3]: Decomposition of prodrugs in mouse plasma in vitro (HPLC of released propofol or other substituted phenol). The settings on record: 37° C. It counts as in vitro ADME. The protocol:
The prodrug to be tested was prepared into a saline solution of 10 mg/mL. 10 μL of drug-containing solution was added to 990 μL of mouse plasma, vortexed for 30 s, and then incubated at 37° C. At 30 s, 1 min, 5 min, 10 min, 30 min, 60 min and 120 min, 50 μL of drug-containing plasma was collected, to which was immediately added 150 μL of acetonitrile to terminate the enzymatic reaction, and then centrifuged at 20000 rpm and 4° C. for 10 min. 50 μL of supernatant was taken out and injected into HPLC, to determine the concentration of propofol by internal standard method. The decomposition rate of the prodrug was calculated from the concentrations of propofol or other substituted phenols. Chromatographic conditions: Agilent Zorbax XdB C18 column (150 mm)×4.6 mm, 5 μm); column temperature 30° C.; the mobile phase, water:acetonitrile (40:60, v/v); fluorescence wavelength: excitation wavelength (Ex) at 276 nm, emission wavelength (EM) at 310 nm; flow rate: 1.2 mL/min; retention time: internal standard (thymol) 3.9 min, propofol 7.4 min. Linear range of propofol or other substituted phenols: 50-35000 ng/mL. Instruments: Waters 2695 high performance liquid chromatograph, Waters 2475 fluorescence detector.

[4] abbreviates: Table 3, dose 2×ED50, tail vein injection, male Kunming mice.

`CC(C)c1cccc(C(C)C)c1OCOP(=O)(O)O` [Fospropofol, fospropofol, reference compound]: the “T1: the onset time after injection” value in data set [1] (setting [4]) is 1.5 to 2 min. Moreover, in data set [1] (setting [4]), the “T2: the duration of disappearance of righting reflex” value (from here on “T2: the duration”) lay within 28 to 45 min. The “T3: the time required for righting reflex to recover to autonomous activity” value (“T3: the time required” for short) in data set [1] (setting [4]) lay within 5 to 8 min. Also, the “TI (therapeutic index)” value in data set [2] was 2.9. Besides, the “Decomposition rates of prodrugs” value is reported as “not decomposed significantly” in data set [3] (10 min); 3% in data set [3] (30 min); 16% in data set [3] (60 min); 38% in data set [3] (120 min); 38% in data set [3] (120 min, listed as fopropofol).
Turning to `CC(C)c1cccc(C(C)C)c1OC(=O)COC(=O)CN1CCCC1.Cl` [Compound 42], the “T1: the onset time after injection” value in data set [1] (setting [4]) is “Immediate”. For the same molecule, the “T2: the duration” value in data set [1] (setting [4]) was 6 to 12 min. In addition, the “T3: the time required” value in data set [1] (setting [4]) lay within 1 to 2 min. Further, the “TI (therapeutic index)” value in data set [2] stood at 3.7. The “Decomposition rates of prodrugs” value in data set [3] (30 s) was 91%; in data set [3] (1 min), 100%; in data set [3] (5 min) it was 100%; in data set [3] (10 min) it was 100%; in data set [3] (30 min), 100%; in data set [3] (60 min), 100%. Further, the “Decomposition rates of prodrugs” value in data set [3] (120 min) was found to be 100%.
On to `CC(C)c1cccc(C(C)C)c1OC(=O)COC(=O)CN1CCC1.Cl` [Compound 37], for which the “T1: the onset time after injection” value in data set [1] (setting [4]) was “Immediate”. The “T2: the duration” value in data set [1] (setting [4]) is 4 to 10 min. Also, in data set [1] (setting [4]), the “T3: the time required” value fell in the range of 1 to 2 min. For the same molecule, in data set [2], the “TI (therapeutic index)” value was determined as 3.9. Further, the “Decomposition rates of prodrugs” value was 75% in data set [3] (30 s); 92% in data set [3] (1 min); 100% in data set [3] (5 min); 100% in data set [3] (10 min); 100% in data set [3] (30 min); 100% in data set [3] (60 min). Moreover, the “Decomposition rates of prodrugs” value in data set [3] (120 min) worked out at 100%.
Consider `CC(C)c1cccc(C(C)C)c1OC(=O)COC(=O)CN1CCOCC1` [Compound 23], for which the “T1: the onset time after injection” value in data set [1] (setting [4]) is “Immediate”. Besides, the “T2: the duration” value in data set [1] (setting [4]) lay in the range of 5 to 13 min. The “T3: the time required” value in data set [1] (setting [4]) lay in the range of 1 to 2 min. The “TI (therapeutic index)” value in data set [2] was 4.4. Moreover, the “Decomposition rates of prodrugs” value in data set [3] (30 s) came to 89%; in data set [3] (1 min) it was 100%; in data set [3] (5 min), 100%; in data set [3] (10 min) it was 100%; in data set [3] (30 min), 100%; in data set [3] (60 min), 100%. Further, the “Decomposition rates of prodrugs” value in data set [3] (120 min) was 100%.
Regarding `CC(C)c1cccc(C(C)C)c1OC(=O)COC(=O)CN1CCCCC1` [Compound 29], the “T3: the time required” value in data set [1] (setting [4]) lay within 1 to 2 min. The “T1: the onset time after injection” value in data set [1] (mouse, in vivo) is recorded as “Immediate”. For the same molecule, in data set [1] (mouse, in vivo), the “T2: the duration” value is 5 to 14 min. The “TI (therapeutic index)” value in data set [2] came out at 4.1. Moreover, the “Decomposition rates of prodrugs” value in data set [3] (30 s) was 88%; in data set [3] (1 min) it was 100%; in data set [3] (5 min), 100%; in data set [3] (10 min) it was 100%; in data set [3] (30 min), 100%; in data set [3] (60 min), 100%. Also, the “Decomposition rates of prodrugs” value in data set [3] (120 min) is 100%.
In the case of `CC(C)c1cccc(C(C)C)c1OC(=O)COC(=O)CN1CCOCC1` [Compound 27], the “T1: the onset time after injection” value in data set [1] (setting [4]) was “Immediate”. For the same molecule, in data set [1] (setting [4]), the “T2: the duration” value fell in the range of 4 to 12 min. Moreover, the “T3: the time required” value in data set [1] (setting [4]) fell in the range of 1 to 2 min. Moreover, the “TI (therapeutic index)” value in data set [2] came out at 4.5. In addition, the “Decomposition rates of prodrugs” value in data set [3] (30 s) was 60%; in data set [3] (1 min) it was 65%; in data set [3] (5 min) it was 79%; in data set [3] (10 min), 86%; in data set [3] (30 min), 100%; in data set [3] (60 min) it was 100%. Further, the “Decomposition rates of prodrugs” value in data set [3] (120 min) amounted to 100%.
For `CC(C)c1cccc(C(C)C)c1OC(=O)COC(=O)[C@@H](C)N(C)C.Cl` [Compound 41], the “T1: the onset time after injection” value in data set [1] (setting [4]) is “Immediate”. Also, in data set [1] (setting [4]), the “T2: the duration” value was 5 to 13 min. Further, in data set [1] (setting [4]), the “T3: the time required” value is 1 to 2 min. For the same molecule, the “TI (therapeutic index)” value in data set [2] is listed as 3.8. For the same molecule, the “Decomposition rates of prodrugs” value came to 89% in data set [3] (30 s); 100% in data set [3] (1 min); 100% in data set [3] (5 min); 100% in data set [3] (10 min); 100% in data set [3] (30 min); 100% in data set [3] (60 min). In addition, the “Decomposition rates of prodrugs” value in data set [3] (120 min) is given as 100%.
